For this assay, the target named is T1, hCRTH2 (Homo sapiens, UniProt Q9Y5Y4).
T1 construct: expressed in transfected cells; host or cells: HEK (human embryonic kidney) cells expressing hCRTH2; membrane preparation
T1 sequence (Q9Y5Y4 1-395): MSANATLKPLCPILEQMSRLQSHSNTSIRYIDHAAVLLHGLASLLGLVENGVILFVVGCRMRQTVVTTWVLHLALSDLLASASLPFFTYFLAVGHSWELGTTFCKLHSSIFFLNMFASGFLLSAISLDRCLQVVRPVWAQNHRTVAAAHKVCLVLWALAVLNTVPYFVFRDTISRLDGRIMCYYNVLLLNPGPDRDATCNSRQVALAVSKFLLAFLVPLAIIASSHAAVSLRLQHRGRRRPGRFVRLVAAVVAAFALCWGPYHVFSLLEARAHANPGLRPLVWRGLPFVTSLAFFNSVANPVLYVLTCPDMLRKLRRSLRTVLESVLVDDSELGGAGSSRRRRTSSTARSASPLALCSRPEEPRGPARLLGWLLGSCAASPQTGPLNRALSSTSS
Description: Radioligand binding assay ([3H]PGD2 competition, HEK-hCRTH2 membranes). The protocol:
Biological Assays Radioligand Binding Assay.
Radioligand binding assays were performed at room temperature in 50 mM Tris-HCl pH 7.4, 1 mM EDTA containing 2 mM MnCl2 and 3.0 nM [^3H]PGD2 (New England Nuclear, Boston, Mass.) (171 Ci mmol^−1), in a final volume of 0.2 mL. Competing ligands were diluted in dimethylsulfoxide (Me2SO) that was kept constant at 1% (v/v) of the final incubation volume. The reaction was initiated by the addition of 8-20 μg of membrane protein prepared from a human embryonic kidney (HEK)-hCRTH2 cell line. Total and non-specific binding were determined in the absence and the presence of 10 μM PGD2, respectively. […] The reaction was routinely conducted for 60 min at room temperature and terminated by rapid filtration through prewetted (0.3% polyethyleneimine) 96-well printed Filtermate™ (Wallac) using a Tomtec® harvester (Hamden, Conn.). After washing with cold buffer, the filter was dried for 2 minutes in microwave, and Meltilex Scintillator sheet (Wallac) was melted on for 2 min. The radioactivity was measured with Betaplate model 1205 (Wallac).

Where [1] appears, read: [3H]PGD2 binding, rated A-E (Table A).

Data on 28 compounds can be found in US9469615B2, “Quinoxalines and AZA-quinoxalines as CRTH2 receptor modulators” (Merck Sharp & Dohme Corp., priority 2010, dated 2016).

pKi: −log10 of the molar value.

As usually defined, the pKi is the Ki on a negative log10 scale, so that one unit is a factor of ten. Compound `O=C(O)C1CC1CCc1nc2cc(C(=O)N3CCC(c4ccccc4)CC3)ccc2nc1-c1ccccc1` (single isomer, unassigned) [20H, 2-(2-(3-phenyl-7-(4-phenylpiperidine-1-carbonyl)quinoxaline-2-yl)ethyl)cyclopropanecarboxylic acid] showed a pKi under setting [1] of 7.70 to 8.68. In turn, `CC(=O)N1CC2(CCN(C(=O)c3ccc4nc(-c5ccccc5)c(CCCCC(=O)O)nc4c3)CC2)c2ccccc21` [compound 123, 7-[(1-acetyl-1,2-dihydrospiro[3H-indole-3,4′-piperidin]-1′-yl)carbonyl]-3-phenyl-2-quinoxalinepentanoic acid] showed a pKi under setting [1] of 7.70 to 8.68.

Regarding `CC1(C)CC(NC(=O)c2ccc3nc(-c4ccc(Cl)cc4)c(CCCCC(=O)O)nc3c2)c2ccccc2O1` (centres unmarked) [compound 582, 5-(3-(4-chlorophenyl)-7-((2,2-dimethylchroman-4-yl)carbamoyl)quinoxalin-2-yl)pentanoic acid], the pKi ([3H]PGD2 competition, Table B) was 8.70 to 10.00. Regarding `C[C@@H](NC(=O)c1ccc2nc(-c3ccc(F)cc3)c(CCCCC(=O)O)nc2c1)c1ccc(F)cc1` [compound 110, 3-(4-fluorophenyl)-7-[[[1(R)-(4-fluorophenyl)ethyl]amino]carbonyl]-2-quinoxalinepentanoic acid], the pKi under setting [1] was 7.70 to 8.68. On the same count and under the same terms, the value for `O=C(O)CCCCc1nc2cc(C(=O)NCc3ccc(OC(F)(F)F)cc3)ccc2nc1-c1ccc(Cl)cc1` [16P, 3-(4-chlorophenyl)-7-[[[[4-(trifluoromethoxy)phenyl]methyl]amino]carbonyl]-2-quinoxalinepentanoic acid] was 8.70 to 10.00; that for `O=C(O)CCCCc1nc2cc(C(=O)NCc3ccc(C(F)(F)F)cc3)ccc2nc1-c1ccc(Cl)cc1` [16U, 3-(4-chlorophenyl)-7-[[[[4-(trifluoromethyl)phenyl]methyl]amino]carbonyl]-2-quinoxalinepentanoic acid] was 8.70 to 10.00. The compound `C[C@H](CCc1nc2cc(C(=O)N[C@@H]3CCCc4ccccc43)ccc2nc1-c1ccc(F)cc1)CC(=O)O` [compound 439, (R)-5-(3-(4-fluorophenyl)-7-(((R)-1,2,3,4-tetrahydronaphthalen-1-yl)carbamoyl)quinoxalin-2-yl)-3-methylpentanoic acid] gave a pKi ([3H]PGD2 competition, Table B) of 7.70 to 8.68. In the case of `O=C(O)CCCCc1nc2cc(C(=O)N3CCC(c4ccccc4)C3)ccc2nc1-c1ccc(F)cc1` (centres unmarked) [compound 106, 3-(4-fluorophenyl)-7-[(3-phenyl-1-pyrrolidinyl)carbonyl]-2-quinoxalinepentanoic acid], the pKi under setting [1] was 8.70 to 10.00. Where the note is “[3H]PGD2 competition, Table B”, `CC(CCCc1nc2cc(C(=O)N3CCN(c4ccccc4)CC3)ccc2nc1-c1ccccc1)C(=O)O` (centres unmarked) [compound 462, 2-methyl-5-(3-phenyl-7-(4-phenylpiperazine-1-carbonyl)quinoxalin-2-yl)pentanoic acid] showed a negative-log Ki (pKi) of 7.70 to 8.68.

As to `O=C(O)CCCCc1nc2cc(C(=O)N[C@@H]3CCCc4cc(Cl)ccc43)ccc2nc1-c1ccc(Cl)cc1` [compound 186, 3-(4-chlorophenyl)-7-[[(6-chloro-1,2,3,4-tetrahydro-1(R)-naphthalenyl)amino]carbonyl]-2-quinoxalinepentanoic acid], under setting [1], the pKi was 8.70 to 10.00. With `C[C@@H](NC(=O)c1ccc2nc(-c3ccc(Cl)cc3)c(CCCCC(=O)O)nc2c1)c1ccc(F)cc1` [16S, 3-(4-chlorophenyl)-7-[[[1(R)-(4-fluorophenyl)ethyl]amino]carbonyl]-2-quinoxalinepentanoic acid], the pKi was 8.70 to 10.00 under setting [1] and 9.15 ([3H]PGD2 binding, values in text). Regarding `O=C(N[C@H](c1ccc(Cl)cc1)C(F)(F)F)c1ccc2nc(-c3ccc(Cl)cc3)c(CC3CCC(C(=O)O)C3)nc2c1` (some centres unmarked) [compound 401], the negative logarithm of the Ki (pKi) ([3H]PGD2 competition, Table B) was 6.70 to 7.70. Consider `O=C(O)CCCCc1nc2cc(C(=O)N3CCC(O)(c4ccc(Cl)cc4)CC3)ccc2nc1-c1ccc(F)cc1` [compound 134, 7-[[4-(4-chlorophenyl)-4-hydroxy-1-piperidinyl]carbonyl]-3-(4-fluorophenyl)-2-quinoxalinepentanoic acid], for which, under setting [1], the pKi is 8.70 to 10.00. Consider `N#Cc1ccc2c(c1)OCC[C@H]2NC(=O)c1ccc2nc(-c3ccc(Cl)cc3)c(CCCCC(=O)O)nc2c1` [compound 332, (R)-5-(3-(4-chlorophenyl)-7-((7-cyanochroman-4-yl)carbamoyl)quinoxalin-2-yl)pentanoic acid], for which the pKi ([3H]PGD2 competition, Table B) was 7.70 to 8.68.

Under “[3H]PGD2 competition, Table B”, `O=C(c1ccc2nc(-c3ccccc3)c(CCCC(F)(F)C(=O)O)nc2c1)N1CCN(c2ccccc2)CC1` [compound 470, 2,2-difluoro-5-(3-phenyl-7-(4-phenylpiperazine-1-carbonyl)quinoxalin-2-yl)pentanoic acid] gave a pKi of 6.70 to 7.70. For the setting “[3H]PGD2 competition, Table B”, `O=C(O)CCCCc1nc2cc(C(=O)N3CCN(Cc4cccc(F)c4)CC3)ccc2nc1-c1ccc(Cl)cc1` [compound 667, 5-(3-(4-chlorophenyl)-7-(4-(3-fluorobenzyl)piperazine-1-carbonyl)quinoxalin-2-yl)pentanoic acid] had a negative logarithm of the Ki (pKi) of 7.70 to 8.68. For `O=C(O)CCCC(O)c1nc2cc(C(=O)N[C@@H]3CCCc4ccccc43)ccc2nc1-c1ccc(Cl)cc1` (stereo partly drawn) [compound 33, 5-(3-(4-chlorophenyl)-7-(((R)-1,2,3,4-tetrahydronaphthalen-1-yl)carbamoyl)quinoxalin-2-yl)-5-hydroxypentanoic acid], the pKi under setting [1] was 6.70 to 7.70. Still for that read-out and setting: the same measure for `O=C(O)Cc1cccc(CCc2nc3cc(C(=O)N4CCN(c5ccccc5)CC4)ccc3nc2-c2ccc(F)cc2)c1` [compound 199, 3-[2-[3-(4-fluorophenyl)-7-[(4-phenyl-1-piperazinyl)carbonyl]-2-quinoxalinyl]ethyl] benzeneacetic acid]: 7.70 to 8.68; for `O=C(O)CCCCc1nc2cc(C(=O)N3CCC(c4ccc(F)cc4)C3)ccc2nc1-c1ccccc1` (centres unmarked) [15S, 5-(7-{[3-(4-fluorophenyl)-pyrrolidin-1-yl]carbonyl}-3-phenylquinoxalin-2-yl)-pentanoic acid]: 8.70 to 10.00.

On to `CS(=O)(=O)c1ccccc1N1CCN(C(=O)c2ccc3nc(-c4ccc(Cl)cc4)c(CCCCC(=O)O)nc3c2)CC1` [compound 697, 5-(3-(4-chlorophenyl)-7-(4-(2-(methylsulfonyl)phenyl)piperazine-1-carbonyl)quinoxalin-2-yl)pentanoic acid], for which the pKi ([3H]PGD2 competition, Table B) was 7.70 to 8.68. For the compound `O=C(O)CCCCc1nc2cc(C(=O)C3CC3)ccc2nc1-c1ccc(C(F)(F)F)cc1` [3Z, 7-(cyclopropylcarbonyl)-3-[4-(trifluoromethyl)phenyl]-2-quinoxalinepentanoic acid], under setting [1], the pKi was 8.70 to 10.00. With `O=C(O)CCCCc1nc2cc(C(=O)N3CCc4ccccc4C3)ccc2nc1-c1ccc(Cl)cc1` [compound 603, 5-(3-(4-chlorophenyl)-7-(1,2,3,4-tetrahydroisoquinoline-2-carbonyl)quinoxalin-2-yl)pentanoic acid], the negative logarithm of the Ki (pKi) ([3H]PGD2 competition, Table B) is 7.70 to 8.68. The same measure, in the same setting: the value for `O=C(O)CCCCc1nc2cc(C(=O)N3CCC4(CC3)CNC(=O)c3ccccc34)ccc2nc1-c1ccc(F)cc1` [compound 353, 5-(3-(4-fluorophenyl)-7-(1-oxo-2,3-dihydro-1H-spiro[isoquinoline-4,4′-piperidin]-1′-ylcarbonyl)quinoxalin-2-yl)pentanoic acid] was 7.70 to 8.68; that for `CC(CCCc1nc2cc(C(=O)N3CCN(c4ccccc4)CC3)ccc2nc1-c1ccc(C(F)(F)F)cc1)C(=O)O` (centres unmarked) [compound 423, 2-methyl-5-(7-(4-phenylpperazine-1-carbonyl)-3-(4-(trifluoromethyl)phenyl)quinoxalin-2-yl) pentanoic acid] was 7.70 to 8.68; that for `O=C(O)CCCCc1nc2cc(C(=O)N3CC4CCCC(C3)C4c3ccccc3)ccc2nc1-c1ccc(Cl)cc1` [compound 345, 5-(3-(4-chlorophenyl)-7-((1R,5S,9r)-9-phenyl-3-azabicyclo[3.3.1]nonane-3-carbonyl)quinoxa1in-2-yl)pentanoic acid] was 7.70 to 8.68. The same measure, in the same setting: the same measure for `C[C@H]1CN(c2ccc(Cl)cc2)CCN1C(=O)c1ccc2nc(-c3ccc(Cl)cc3)c(CCCCC(=O)O)nc2c1` [compound 541, (S)-5-(3-(4-chlorophenyl)-7-(4-(4-chlorophenyl)-2-methylpiperazine-1-carbonyl)quinoxalin-2-yl)pentanoic acid]: 7.70 to 8.68. Consider `O=C(O)Cc1cccc(CCc2nc3cc(C(=O)N[C@@H](c4ccccc4)C(F)(F)F)ccc3nc2-c2ccc(Cl)cc2)c1` [19J, 3-[2-[3-(4-chlorophenyl)-7-[[(2,2,2-trifluoro-1(S)-phenylethyl)amino]carbonyl]-2-quinoxalinyl]ethyl]benzeneacetic acid], for which, under setting [1], the pKi is 6.70 to 7.70. The same measure, in the same setting: the value for `O=C(O)CCCCc1nc2cc(C(=O)N3CC=C(c4ccc(Cl)cc4)CC3)ccc2nc1-c1ccc(F)cc1` [compound 136, 7-[[4-(4-chlorophenyl)-3,6-dihydro-1(2H)-pyridinyl]carbonyl]-3-(4-fluorophenyl)-2-quinoxalinepentanoic acid] was 7.70 to 8.68.
